Laboratory results as given in US6133294A (priority 1999, dated 2000).

Key:
Format in all cases: in vivo
[1] = tested on: Erysiphe graminis; assay: Powdery Mildew of Wheat (Erysiphe graminis--ERYSGT); conditions: wheat (cultivar Monon), 100 ppm spray to run off, inoculated after 24 hours; for pest or weed control at 100 ppm: Blumeria graminis, 1DP, read-out: control of plant disease, ERYSGT 1DP
Protocol: (§1) Compound Formulation: Compound formulation was accomplished by dissolving technical materials in acetone, with serial dilutions then made in acetone to obtain desired rates. Final treatment volumes were obtained by adding nine volumes 0.05% aqueous Tween-20 or Triton X-100, depending upon the pathogen.
Powdery Mildew of Wheat (Erysiphe graminis--ERYSGT): Wheat (cultivar Monon) was grown in a soilless peat-based potting mixture (Metromix) until the seedlings were 1-2 leaf (BBCH 12). These plants were then sprayed to run off with the test compound at a rate of 100 ppm. After 24 hours the test plants were inoculated with Erysiphe graminis by dusting spores from stock plants onto the test plants. The plants were then transferred to the greenhouse until disease developed on the untreated control plants.
(§2) the following table presents the activity of typical compounds of the present invention when evaluated in these experiments. The effectiveness of the test compounds in controlling disease was rated using the following scale: […]

[2] = tested on: Leptosphaeria nodorum; assay: Glume blotch of wheat (Leptosphaeria nodorum--LEPTNO); conditions: wheat (cultivar Monon), 100 ppm spray to run off, inoculated after 24 hours; for pest or weed control at 100 ppm: Parastagonospora nodorum, 1DP, read-out: control of plant disease, LEPTNO 1DP
Protocol: as §1
(§3) Glume blotch of wheat (Leptosphaeria nodorum--LEPTNO): Wheat (cultivar Monon) was grown from seed in a soilless peat-based potting mixture (Metromix) until the seedlings were 1-2 leaf (BBCH 12). These plants were then sprayed to run off with the test compound at a rate of 100 ppm. After 24 hours the test plants were inoculated with an aqueous spore suspension of Leptosphaeria nodorum. The plants were then transferred to the greenhouse until disease developed on the untreated control plants.
as §2

[3] = tested on: Phytophthora infestans; assay: whole plant or invertebrate; conditions: for control of plant disease, PHYTIN 1DP: tomatoes (cultivar Rutgers), 100 ppm spray to run off, inoculated after 24 hours; for pest or weed control at 100 ppm: Phytophthora infestans, 24 h, read-out: control of plant disease, PHYTIN 1DP
[4] = tested on: Puccinia recondita; assay: Brown rust (Puccinia recondita--PUCCRT); conditions: wheat (cultivar Monon), 100 ppm spray to run off, inoculated after 24 hours; for pest or weed control at 100 ppm: Puccinia recondita, 1DP, read-out: control of plant disease, PUCCRT 1DP
Protocol: as §1
as §3, with “Brown rust (Puccinia recondita--PUCCRT):” for “Glume blotch of wheat (Leptosphaeria nodorum--LEPTNO):”, “[…]).” for “1-2 leaf (BBCH 12).”, “Puccinia recondita.” for “Leptosphaeria nodorum.”
as §2

Row | SMILES | control of plant disease, ERYSGT 1DP [1] | control of plant disease, LEPTNO 1DP [2] | control of plant disease, PHYTIN 1DP [3] | control of plant disease, PUCCRT 1DP [4] | pest or weed control at 100 ppm [1] [%] | pest or weed control at 100 ppm [2] [%] | pest or weed control at 100 ppm [3] [%] | pest or weed control at 100 ppm [4] [%]
1 | O=C(NNC(=O)C1CC1)c1cnc(Cl)c(Cl)c1 [Example 19] | ++ (75-100% control of plant disease) | ++ (75-100% control of plant disease) | - (0-24% control of plant disease) | ++ (75-100% control of plant disease) |  |  |  | 
2 | CNC(=O)C(=NOC)c1ccccc1COc1cccc(-c2nc(C(C)(C)C)no2)n1 [Example 84] |  |  |  |  | 25 to 74 | 75 to 100 | 75 to 100 | 75 to 100
3 | CNC(=O)C(=NOC)c1ccccc1COc1ccc(-c2nc(CC(C)C)no2)cn1 [Example 75] |  |  |  |  | 75 to 100 | 25 to 74 | 0 to 24 | 75 to 100
4 | CNC(=O)C(=NOC)c1ccccc1COc1ncc(-c2noc(CCCl)n2)cc1Cl [Example 26] |  |  |  |  | 75 to 100 | 75 to 100 | 75 to 100 | 75 to 100
5 | CNC(=O)C(=NOC)c1ccccc1COc1ccc(-c2noc(CSc3ccccc3)n2)cn1 [Example 28] |  |  |  |  | 75 to 100 | 75 to 100 | 75 to 100 | 75 to 100
6 | CNC(=O)C(=NOC)c1ccccc1COc1ncc(-c2nc(C)no2)cc1Cl [Example 49, Benzeneacetamide, 2-[[[3-chloro-5-(3-methyl-1,2,4-oxadiazol-5-yl)-2-pyridinyl]oxy]methyl]-α-(methoxyimino)-N-methyl-] |  |  |  |  | 75 to 100 | 75 to 100 | 0 to 24 | 75 to 100
7 | CNC(=O)C(=NOC)c1ccccc1COc1ncc(-c2noc(COC)n2)cc1Cl [Example 23] |  |  |  |  | 75 to 100 | 25 to 74 | 0 to 24 | 75 to 100
8 | CNC(=O)C(=NOC)c1ccccc1COc1ccc(-c2noc(C(F)(F)F)n2)cn1 [Example 16] |  |  |  |  | 75 to 100 | 0 to 24 | 0 to 24 | 75 to 100
9 | CNC(=O)C(=NOC)c1ccccc1COc1ncc(-c2cc(C(C)(C)C)on2)cc1Cl [Example 41] |  |  |  |  | 75 to 100 | 75 to 100 | 0 to 24 | 75 to 100
10 | CCc1noc(-c2cnc(OCc3ccccc3C(=NOC)C(=O)OC)c(Cl)c2)n1 [Example 101] |  |  |  |  | 75 to 100 | 25 to 74 | 75 to 100 | 75 to 100
11 | COC=C(C(=O)OC)c1ccccc1COc1ncc(-c2nc(C(C)(C)C)no2)cc1Cl [Example 100] |  |  |  |  | 25 to 74 | 25 to 74 | 75 to 100 | 75 to 100
12 | CNC(=O)C(=NOC)c1ccccc1COc1ncc(-c2nc(C3CCCCC3)no2)cc1Cl [Example 72] |  |  |  |  | 0 to 24 | 0 to 24 | 0 to 24 | 75 to 100
13 | CNC(=O)C(=NOC)c1ccccc1COc1ncc(-c2noc(CC(C)(C)C)n2)cc1Cl [Example 17] |  |  |  |  | 75 to 100 | 75 to 100 | 0 to 24 | 75 to 100
14 | CNC(=O)C(=NOC)c1ccccc1COc1ncc(-c2noc(C(C)(C)C)n2)cc1Cl [Example 6, Benzeneacetamide, 2-[[[3-chloro-5-(5-t-butyl-1,2,4-oxadiazol-3-yl)-2-pyridinyl]oxy]methyl]-α-(methoxyimino)-N-methyl-] |  |  |  |  | 75 to 100 | 75 to 100 | 75 to 100 | 75 to 100
15 | CNC(=O)C(=NOC)c1ccccc1COc1ncc(-c2nc(N(C)C)no2)cc1Cl [Example 64] |  |  |  |  | 75 to 100 | 75 to 100 | 0 to 24 | 75 to 100
16 | CCOC(=O)c1nc(-c2cnc(OCc3ccccc3C(=NOC)C(=O)NC)c(C)c2)oc1C [Example 52, Benzeneacetamide, 2-[[[3-methyl-5-(4-ethoxycarbonyl-5-methyl-oxazol-2-yl)-2-pyridinyl]oxy]methyl]-α-(methoxyimino)-N-methyl-] |  |  |  |  | 25 to 74 | 25 to 74 | 75 to 100 | 75 to 100
17 | CNC(=O)C(=NOC)c1ccccc1COc1ncc(-c2nnc(C(C)(C)C)o2)cc1Cl [Example 4] |  |  |  |  | 75 to 100 | 75 to 100 | 0 to 24 | 75 to 100
18 | CCc1cc(-c2cnc(OCc3ccccc3C(=NOC)C(=O)NC)c(Cl)c2)on1 [Example 76] |  |  |  |  | 75 to 100 | 75 to 100 | 25 to 74 | 75 to 100
19 | CNC(=O)C(=NOC)c1ccccc1COc1ccc(-c2cc(C(C)(C)C)on2)cn1 [Example 43] |  |  |  |  | 75 to 100 | 75 to 100 | 75 to 100 | 75 to 100
20 | CCCCC(CC)c1nc(-c2cnc(OCc3ccccc3C(=NOC)C(=O)NC)c(Cl)c2)no1 (centres unmarked) [Example 14] |  |  |  |  | 75 to 100 | 75 to 100 | 0 to 24 | 75 to 100
21 | CNC(=O)C(=NOC)c1cccc(F)c1COc1cccc(-c2nc(C(C)(C)C)no2)n1 [Example 88] | ++ (75-100% control of plant disease) | ++ (75-100% control of plant disease) | ++ (75-100% control of plant disease) | ++ (75-100% control of plant disease) |  |  |  | 
22 | CNC(=O)C(=NOC)c1cccc(F)c1COc1ncc(-c2noc(C(F)(F)F)n2)cc1Cl [Example 32] | ++ (75-100% control of plant disease) | + (25-74% control of plant disease) | - (0-24% control of plant disease) | ++ (75-100% control of plant disease) |  |  |  | 
23 | CNC(=O)C(=NOC)c1cccc(F)c1COc1ncc(-c2noc(C(C)(C)C)n2)cc1Cl [Example 27] | ++ (75-100% control of plant disease) | ++ (75-100% control of plant disease) | - (0-24% control of plant disease) | ++ (75-100% control of plant disease) |  |  |  | 
24 | CCCc1noc(-c2ccc(OCc3ccccc3C(=NOC)C(=O)NC)nc2)n1 [Example 74] |  |  |  |  | 75 to 100 | 0 to 24 | 0 to 24 | 75 to 100
25 | CCc1nc(-c2cnc(OCc3ccccc3C(=NOC)C(=O)NC)c(Cl)c2)no1 [Example 36] |  |  |  |  | 75 to 100 | 75 to 100 | 0 to 24 | 75 to 100
26 | CNC(=O)C(=NOC)c1ccccc1COc1ncc(-c2nnc(C)o2)cc1Cl [Example 3] |  |  |  |  | 75 to 100 | 75 to 100 | 75 to 100 | 75 to 100
